Consider twelve compounds from patent publication US9126935B2, “Aurora kinase modulators and methods of use” (Amgen Inc., priority 2008, dated 2015).

A value given as a limit tells only on which side of the number the result lay.

The subject of one test is HeLa cells. Nature of the test: HeLa cell 24 hr ploidy assay. The format is cell-based. Particulars: Homo sapiens, 24 hrs treatment, average, read-out: 24h_4N Ploidy EC50_IP (uM Avg). As to the method:
The purpose of this assay is to evaluate the ability of selected individual compounds to induce Deoxyribonucleic acid (DNA) content (ploidy) in cells through failed cell division. Cell cycle analysis is a rapid and efficient way to evaluate the status of DNA content (ploidy) of a given cell. HeLa cells (1×10^4 HeLa cells/well) in 100 ul of media (MEM+10% FBS) were plated in 96-well plates (Packard View) and cultured for 24 hrs at 37° C. maintained in a 5% CO2 atmosphere. The following day, cells were treated for 24 hrs with inhibitor compounds (10 pt. Dose ranging from 0.0024-1.25 umol/L). The compounds were serially diluted in DMSO (0.25% final concentration). The cells were fixed (3.7% Formaldehyde and 1% glutaraldehyde) and permeabilized (1×PBS with 1% BSA and 0.2% Triton X-100) in preparation for nuclear staining. The well plates were stained for 45 minutes at RT in the dark using Hoechest 33342 nuclear stain at 0.5 ug·ml (Stock of 10 mg/ml, Invitrogen, CA, Cat # H3570). The nuclear stain was removed by aspiration and the cells were washed with wash buffer. A Cellomics Array Scan Vti plate reader was used to acquire the DNA ploidy data of the cells using Cell Cycle bioapplication. Numbers for each of “valid cell count/well”, “% of 4N cells” and “% of >4Ncells” were calculated with the assistance of an Activity Base 5.1ca software and dose curves were generated using an XLFit software. With XLFit, final EC50 IP and EC50 transit values, as well as the Max and Min, were calculated for each curve.

A further test has as its target T1, AuroraB (Homo sapiens, UniProt Q96GD4).
T1 construct: 20 μL of AuroraB FL His for a final volume of 41 μL; His
Briefly: AuroraB Homogeneous Time Resolved Fluorescent (HTRF) kinase assay. The test is classed as biochemical. To be noted: average; ATP 23 μM; read-out: AurB_IC50_IP (uM Avg). Here is the method: The AuroraB HTRF assay begins with AuroraB in the presence of ATP phosphorylating the biotinylated peptide Histone H3. The reaction incubates for about 90 min. the reaction is quenched by addition of detection reagents, which stop the reaction by diluting out the enzyme and chelating the metals due to the presence of EDTA. After addition, the assay is incubated for about 60 min to allow detection reagents to equilibrate.
The AuroraB HTRF assay comprises 1 μL of compound in 100% DMSO, 20 μL of ATP and biotinylated Histone H3, and 20 μL of AuroraB FL His for a final volume of 41 μL. The final concentration of Histone H3 is 0.1 μM. The final concentration of ATP is 23 μM (Km(app)=23 μM+/−2.6) and the final concentration of AuroraB is 400 pM. Buffer conditions are as follows: 50 mM HEPES pH 7.5, 5 mM NaCl, 0.5 mM MgCl, 0.5 mM MnCl, 2 mM DTT, 0.05% BSA.
The assay is quenched and stopped with 160 μL of detection reagent. Detection reagents are as follows: Buffer made of 50 mM Tris, pH 7.5, 100 mM NaCl, 3 mM EDTA, 0.05% BSA, 0.1% Tween20. Added to this buffer prior to reading is Steptavidin allophycocyanin (SA-APC) at a final conc in the assay of 0.001 mg/mL, and europilated anti-phosphoHistoneH3 Ab (Eu-anti-His H3) at a final conc of 0.064 nM.
The assay plate is read in either a Discovery or a RubyStar. The eu-anti-His H3 is excited at 320 nm and emits at 615 nm to excite the SA-APC which in turn emits at 655 nm. The ratio of SA-APC at 655 nm (excited due to close proximity to the Eu-anti-H is H3 because of phosphorylation of the peptide) to free Eu-anti-His H3 at 615 nm will give substrate phosphorylation.

In the next test the target is T2, AuroraA-TPX2 (Homo sapiens, UniProt O14965).
T2 construct: 20 μL of AuroraA-TPX2 KD GST for a final volume of about 41 μL; GST
T2 sequence (O14965 133-383 limits assumed): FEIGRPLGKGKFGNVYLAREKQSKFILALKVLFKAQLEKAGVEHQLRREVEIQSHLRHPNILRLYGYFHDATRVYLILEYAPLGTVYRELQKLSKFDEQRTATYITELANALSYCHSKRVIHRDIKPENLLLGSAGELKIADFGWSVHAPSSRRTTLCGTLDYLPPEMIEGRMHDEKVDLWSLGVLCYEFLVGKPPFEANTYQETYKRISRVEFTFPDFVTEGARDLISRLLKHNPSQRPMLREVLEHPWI
T2 sequence (Q9ULW0 1-43 partner limits assumed): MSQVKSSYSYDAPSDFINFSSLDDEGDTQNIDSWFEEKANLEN
Nature of the test: AuroraA-TPX2 Homogeneous Time Resolved Fluorescent (HTRF) kinase assay. The format is biochemical. Particulars: average; ATP about 1 μM; read-out: AurA _IC50_ IP (uM Avg). As to the method:
The Aurora-A HTRF assay begins with Aurora-A in the presence of ATP phosphorylating the biotinylated peptide PLK. The reaction incubates for about 120 min. Detection reagents are added to quench the reaction. These agents stop the reaction by diluting out the enzyme and chelating the metals due to the presence of EDTA. After addition, the assay is incubated overnight to allow the detection reagents to equilibrate.
The AuroraA HTRF assay comprises 1 μL of compound in 100% DMSO, 20 μL of ATP and biotinylated PLK, and 20 μL of AuroraA-TPX2 KD GST for a final volume of about 41 μL. The final concentration of PLK is about 1 μM. The final concentration of ATP is about 1 μM (Km(app)=1 μM+/−0.1) and the final concentration of AuroraA is about 5 nM. Buffer conditions are as follows: 60 mM HEPES pH 7.5, 25 mM NaCl, 10 mM MgCl, 2 mM DTT, 0.05% BSA.
The assay is quenched and stopped with 160 μL of detection reagent. Detection reagents are as follows: Buffer made of 50 mM Tris, pH 7.5, 100 mM NaCl, 3 mM EDTA, 0.05% BSA, 0.1% Tween20. Added to this buffer prior to reading is Steptavidin allophycocyanin (SA-APC) at a final conc in the assay of 0.0005 mg/mL, and europilated anti-phosphoPLK Ab (Eu-anti-PLK) at a final conc of 0.02 nM.
The assay plate is read in either a Discovery or a RubyStar. The eu-anti-PLK is excited at 320 nm and emits at 615 nm to excite the SA-APC which in turn emits at 655 nm. The ratio of SA-APC at 655 nm (excited due to close proximity to the Eu-anti-PLK because of phosphorylation of the peptide) to free Eu-anti-PLK at 615 nm will give substrate phosphorylation.

T1 sequence (Q96GD4 whole entry): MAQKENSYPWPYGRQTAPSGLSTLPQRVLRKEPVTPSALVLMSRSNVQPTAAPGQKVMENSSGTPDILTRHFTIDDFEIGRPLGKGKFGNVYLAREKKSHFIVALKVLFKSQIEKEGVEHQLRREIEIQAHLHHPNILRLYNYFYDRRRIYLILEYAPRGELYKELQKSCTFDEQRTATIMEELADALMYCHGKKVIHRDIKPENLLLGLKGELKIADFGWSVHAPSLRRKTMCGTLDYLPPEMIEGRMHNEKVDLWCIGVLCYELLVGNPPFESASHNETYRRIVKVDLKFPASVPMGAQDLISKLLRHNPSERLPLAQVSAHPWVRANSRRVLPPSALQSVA

In the case of `COc1cc2nccc(Oc3ccc(NC(=O)c4ccccc4Nc4ccc(F)cc4)cc3)c2cc1OC` [Example 11, N-(4-(6,7-dimethoxyquinolin-4-yloxy)phenyl)-2-(4-fluorophenylamino)benzamide], the EC50 with HeLa cells was less than 0.1 µM. In addition, the IC50 on AuroraB and at AuroraA-TPX2 was less than 0.1 µM in each case.

Regarding `COc1cc2nccc(Oc3ccc(NC(=O)c4ccccc4Nc4ccccc4)cc3)c2cc1OC` [Example 12, N-(4-(6,7-dimethoxyquinolin-4-yloxy)phenyl)-2-(phenylamino)benzamide], the EC50 in the test with HeLa cells was less than 0.1 µM. In addition, the IC50 on AuroraB and at AuroraA-TPX2 was less than 0.1 µM each time.

With `COc1cc2nccc(Oc3ccc(NC(=O)c4ccccc4Nc4cccc(F)c4)cc3)c2cc1OC` [Example 13, N-(4-(6,7-dimethoxyquinolin-4-yloxy)phenyl)-2-(3-fluorophenylamino)benzamide], the EC50 in the test with HeLa cells was less than 0.1 µM. For the same compound, the IC50 on AuroraB and at AuroraA-TPX2 was less than 0.1 µM throughout.

Take `COc1cnc2c(Oc3ccc(NC(=O)c4cc(F)ccc4Nc4ccccc4)cc3)ccnc2c1` [Example 14, 5-fluoro-N-(4-(7-methoxy-1,5-naphthyridin-4-yloxy)phenyl)-2-(phenylamino)benzamide]: the EC50 with HeLa cells was less than 0.1 µM. The IC50 at AuroraB and on AuroraA-TPX2 was less than 0.1 µM each time.

Regarding `COc1cnc2c(Oc3ccc(NC(=O)c4ccccc4Nc4ccccc4)cc3)ccnc2c1` [Example 15, N-(4-(7-methoxy-1,5-naphthyridin-4-yloxy)phenyl)-2-(phenylamino)benzamide], the EC50 in the test with HeLa cells was less than 0.1 µM. For the same compound, the IC50 at AuroraB and on AuroraA-TPX2 was less than 0.1 µM in each case.

Turning to `COc1cc2nccc(Oc3ccc(NC(=O)c4ccccc4Nc4ccccc4)cc3F)c2cc1OC` [Example 16, N-(4-(6,7-dimethoxyquinolin-4-yloxy)-3-fluorophenyl)-2-(phenylamino)benzamide], the IC50 at AuroraB and at AuroraA-TPX2 was less than 0.1 µM in each case.

Turning to `COc1ccc2c(Oc3ccc(NC(=O)c4ccccc4Nc4ccccc4)cc3F)ccnc2c1` [Example 17, N-(3-fluoro-4-(7-methoxyquinolin-4-yloxy)phenyl)-2-(phenylamino)benzamide], the EC50 in the test with HeLa cells is 0.1 to 0.5 µM. The IC50 on AuroraB and at AuroraA-TPX2 was less than 0.1 µM in each case.

For `Nc1nccc(Oc2ccc(NC(=O)c3ccccc3Nc3ccc(F)cc3)cc2)n1` [Example 18, N-(4-(2-aminopyrimidin-4-yloxy)phenyl)-2-(4-fluorophenylamino)benzamide], the EC50 in the test on HeLa cells lay within 1 to 5 µM. The IC50 at AuroraB and at AuroraA-TPX2 was 0.1 to 0.5 µM throughout.

In the case of `COc1cnc2c(Sc3ccc(NC(=O)c4ccccc4NN4CCCCC4)cc3)ccnc2c1` [Example 19, N-(4-(7-methoxy-1,5-naphthyridin-4-ylthio)phenyl)-2-(piperidin-1-ylamino)benzamide], the EC50 in the test on HeLa cells fell in the range of 0.5 to 1 µM. Moreover, the IC50 on AuroraB is less than 0.1 µM; on AuroraA-TPX2, 0.5 to 1 µM.

With `COc1cnc2c(Oc3ccc(NC(=O)c4ccccc4NN4CCCCC4)cc3)ccnc2c1` [Example 20, N-(4-(7-methoxy-1,5-naphthyridin-4-yloxy)phenyl)-2-(piperidin-1-ylamino)benzamide], the EC50 in the test on HeLa cells was 1 to 5 µM. Moreover, the IC50 on AuroraB lay in the range of 0.1 to 0.5 µM; on AuroraA-TPX2, 0.5 to 1 µM.

As for `CNC(=O)c1cc(Oc2ccc(NC(=O)c3ccccc3Nc3ccccc3)cc2)ccn1` [Example 21, N-methyl-4-(4-(2-(phenylamino)benzamido)phenoxy)picolinamide], the EC50 with HeLa cells was 1 to 5 µM. The results for the IC50 on AuroraB and at AuroraA-TPX2 were 0.1 to 0.5 µM and 1 to 5 µM, respectively.

On to `COc1cnc2c(Sc3ccc(NC(=O)c4ccccc4NN4CCC(OC)CC4)cc3)ccnc2c1` [Example 22, N-(4-(7-methoxy-1,5-naphthyridin-4-ylthio)phenyl)-2-(4-methoxypiperidin-1-ylamino)benzamide], for which the EC50 in the test with HeLa cells was in the range of 0.5 to 1 µM. The IC50 is less than 0.1 µM at AuroraB and 1 to 5 µM on AuroraA-TPX2.
